These results are taken from US6713043B2 (priority 1996, dated 2004).

The structures appear in SMILES notation. Values after ≈ are worked out from the molar mass of the structure shown. “Also recorded” adds a separate entry of the source.

One data set has as its system wild type L. pneumophila. The data set is classed as cell-based, Legionella pneumophila.
The subject of data set [1] is L. pneumophila. As to the kind of experiment: microbe, parasite or virus in culture. Type of data set: cell-based, Legionella pneumophila. As to conditions: for MIC: Legionella pneumophila, 48 h, read-out: MIC (minimum concentration at which no growth occurred).
The test system of data set [2] is F4b. Type of data set: cell-based, Legionella pneumophila.
In data set [3] the test system is L. pneumophila. The data set is classed as cell-based, Legionella pneumophila.
In data set [4] the test system is L. pneumophila in human monocytes. Type of data set: cell-based, Legionella pneumophila.
Data set [5] deals with L. pneumophila in human macrophages. The data set is classed as cell-based, Legionella pneumophila.
The conditions of data set [6]: in vivo; cited from earlier work.
Data set [7] relates to L. pneumophila in HL-60 cells. The data set is classed as cell-based, Legionella pneumophila.
The subject of data set [8] is L. pneumophila. Type of data set: cell-based, Legionella pneumophila. The source holds these as a separate data set.
For the next data set, the system named is P. aeruginosa. Type of data set: cell-based, Psuedomonas aeruginosa.
The test system of data set [9] is F4b. Type of data set: cell-based, Legionella pneumophila. This is another data set of the same source.
A further data set relates to HL-60 cells. As to conditions: human.
Data set [10] has as its system L. pneumophila in mouse J774 macrophages. The data set is classed as cell-based, Legionella pneumophila.
In a further data set the test system is F4b in HL-60 cells. Type of data set: cell-based, Legionella pneumophila.
The subject of a further data set is F4b in human macrophages. Type of data set: cell-based, Legionella pneumophila.
Data set [11] deals with F4b. Type of data set: cell-based, Legionella pneumophila. The source holds these as a separate data set.
For data set [12], the system named is L. pneumophila. Type of data set: cell-based, Legionella pneumophila. The source holds these as a separate data set.
Data set [13] relates to L. pneumophila infected HL-60 cells. Type of data set: cell-based, human.

`CCc1cc(C(N)=S)ccn1` [ethionamide]: the “sensitivity of wild type L. pneumophila relative to F4b (zone of inhibition)” value in the data set on wild type L. pneumophila is given as “twice as sensitive”.

Consider `CCCN(CCC)S(=O)(=O)c1ccc(C(=O)O)cc1` [Probenecid, probenecid], for which, in the data set with L. pneumophila [1], the MIC stood at 160 µg/mL (≈ 561 µM).

As for `CC(C)(Oc1ccc(Cl)cc1)C(=O)O` [clofibric acid], the MIC in the data set on L. pneumophila [1] stood at 125 µg/mL (≈ 582 µM).

With `NNC(=O)c1ccncc1` [isoniazid], the “sensitivity (zone of inhibition)” value is recorded as “sensitive” in the data set on F4b [2] and “no sensitivity” in the data set with wild type L. pneumophila.

For the compound `Cc1ccc(C)c(OCCCC(C)(C)C(=O)O)c1` [GFZ, Gemfibrozil], in the data set with L. pneumophila [3], the “GFZ concentration at which no growth was seen on the CYE plates” value worked out at 400 µg/mL. Besides, the bacteriocidal or bacteriostatic result with L. pneumophila [3] is reported as “bacteriostatic”. For the same compound, the “inhibition of intracellular growth (CFU)” value is recorded as “one log; also recorded: partially inhibited” in data set [4]; “partially inhibited” in [5]; “partially inhibited; also recorded: three logs” in [7]; “one log; also recorded: partially inhibited” in [10]; “one log” with F4b in HL-60 cells; “one log” in the data set on F4b in human macrophages. The “concentration of gemfibrozil used in humans treated for hyperlipidemia” value in data set [6] is 15000 to 30000 ng/mL. For the same compound, the “inclusion accumulation (EM)” value in the data set on L. pneumophila [8] is “accumulated granules”; with F4b [9] it was “no apparent difference in the number or size of inclusions”. Moreover, in the data set on P. aeruginosa, the “susceptibility to GFZ” value is listed as “not susceptible”. The “effect on HL-60 cell viability” value in the data set on HL-60 cells is given as “did not affect HL-60 cell viability”. In addition, the “growth in AYE broth in presence of GFZ” value in the data set on L. pneumophila [1] was “inhibited L. pneumophila growth”. Moreover, the MIC with L. pneumophila [1] was found to be 10 µg/mL (≈ 39.9 µM). The “effect on fatty acid profile” value in the data set on F4b [11] is “did not affect the fatty acid profile”; with L. pneumophila [12] it was “decreased peak areas for several typical L. pneumophila fatty acids”. The “viability of L. pneumophila infected HL-60 cells (MTT reduction)” value in data set [13] is on record as “increased viability”.
